System: Glucose
Test: Glucose after subcutaneous (SC) administration of insulin
Format: in vivo, rat

Insulin: Recombinant human zinc insulin showed a Glucose (study 3, 0.05 mg/kg, time 0) of 83 mg/dL, a Glucose (study 3, 0.05 mg/kg, time 15) of 66 mg/dL and a Glucose (study 3, 0.05 mg/kg, time 30) of 60 mg/dL. The Glucose (study 3, 0.05 mg/kg, time 45) was 61 mg/dL, the Glucose (study 3, 0.05 mg/kg, time 60) was 73 mg/dL and the Glucose (study 3, 0.05 mg/kg, time 120) was 98 mg/dL. For the same substance, the Glucose (study 3, 0.05 mg/kg, time 180) was 105 mg/dL, the Glucose (study 4, 0.05 mg/kg, time 0) was 73 mg/dL and the Glucose (study 4, 0.05 mg/kg, time 15) was 66 mg/dL. It also gave a Glucose (study 4, 0.05 mg/kg, time 30) of 59 mg/dL, a Glucose (study 4, 0.05 mg/kg, time 45) of 64 mg/dL and a Glucose (study 4, 0.05 mg/kg, time 60) of 72 mg/dL. For the same substance, the Glucose (study 4, 0.05 mg/kg, time 90) was 88 mg/dL, the Glucose (study 4, 0.05 mg/kg, time 120) was 110 mg/dL and the Glucose (study 5, 0.05 mg/kg, time 0) was 60 mg/dL. The Glucose (study 5, 0.05 mg/kg, time 15) was 42 mg/dL, the Glucose (study 5, 0.05 mg/kg, time 30) was 38 mg/dL and the Glucose (study 5, 0.05 mg/kg, time 45) was 42 mg/dL. It also gave a Glucose (study 5, 0.05 mg/kg, time 60) of 48 mg/dL, a Glucose (study 5, 0.05 mg/kg, time 90) of 52 mg/dL and a Glucose (study 5, 0.05 mg/kg, time 120) of 66 mg/dL. For the same substance, the Glucose (study 6, 0.05 mg/kg, time 0) was 68 mg/dL, the Glucose (study 6, 0.05 mg/kg, time 15) was 40 mg/dL and the Glucose (study 6, 0.05 mg/kg, time 30) was 39 mg/dL. For the same substance, the Glucose (study 6, 0.05 mg/kg, time 45) was 36 mg/dL, the Glucose (study 6, 0.05 mg/kg, time 60) was 32 mg/dL and the Glucose (study 6, 0.05 mg/kg, time 90) was 35 mg/dL. The Glucose (study 6, 0.05 mg/kg, time 120) was 39 mg/dL, the Glucose (study 7, 0.05 mg/kg, time 0) was 65 mg/dL and the Glucose (study 7, 0.05 mg/kg, time 15) was 45 mg/dL. For the same substance, the Glucose (study 7, 0.05 mg/kg, time 30) was 39 mg/dL, the Glucose (study 7, 0.05 mg/kg, time 45) was 40 mg/dL and the Glucose (study 7, 0.05 mg/kg, time 60) was 42 mg/dL. It also gave a Glucose (study 7, 0.05 mg/kg, time 90) of 42 mg/dL, a Glucose (study 7, 0.05 mg/kg, time 120) of 50 mg/dL and a Glucose (study 8, 0.05 mg/kg, time 0) of 70 mg/dL. It also gave a Glucose (study 8, 0.05 mg/kg, time 15) of 59 mg/dL, a Glucose (study 8, 0.05 mg/kg, time 30) of 64 mg/dL and a Glucose (study 8, 0.05 mg/kg, time 45) of 69 mg/dL. The Glucose (study 8, 0.05 mg/kg, time 60) was 73 mg/dL, the Glucose (study 8, 0.05 mg/kg, time 90) was 89 mg/dL and the Glucose (study 8, 0.05 mg/kg, time 120) was 106 mg/dL.
